Reference: patent US11214565B2, “Compound, compositions, and methods” (Denali Therapeutics Inc., priority 2015, dated 2022)

Biological target: LRRK2 G2019S enzyme (Homo sapiens (Human), UniProt Q5S007, G2019S)
Assay: LRRK2 G2019S TR-FRET biochemical kinase assay (LRRKtide substrate)
Settings: 5 nM LRRK2, 134 μM ATP, 60 minute reaction, 23° C.
Procedure, shortened: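 5 nM LRRK2 G2019S preincubated 20 min with LRRKtide and compound (3.162-fold dilution series) in Tris pH 7.5, MgCl2, EGTA, Brij-35, DTT, then reacted 60 min at 23 °C with 134 μM ATP. EDTA-stopped; pLRRKtide antibody detection, TR-FRET read at 340 nm excitation, 520/490–495 nm emission.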

LRRK2 G2019S enzyme, sequence (Q5S007 whole entry G2019S): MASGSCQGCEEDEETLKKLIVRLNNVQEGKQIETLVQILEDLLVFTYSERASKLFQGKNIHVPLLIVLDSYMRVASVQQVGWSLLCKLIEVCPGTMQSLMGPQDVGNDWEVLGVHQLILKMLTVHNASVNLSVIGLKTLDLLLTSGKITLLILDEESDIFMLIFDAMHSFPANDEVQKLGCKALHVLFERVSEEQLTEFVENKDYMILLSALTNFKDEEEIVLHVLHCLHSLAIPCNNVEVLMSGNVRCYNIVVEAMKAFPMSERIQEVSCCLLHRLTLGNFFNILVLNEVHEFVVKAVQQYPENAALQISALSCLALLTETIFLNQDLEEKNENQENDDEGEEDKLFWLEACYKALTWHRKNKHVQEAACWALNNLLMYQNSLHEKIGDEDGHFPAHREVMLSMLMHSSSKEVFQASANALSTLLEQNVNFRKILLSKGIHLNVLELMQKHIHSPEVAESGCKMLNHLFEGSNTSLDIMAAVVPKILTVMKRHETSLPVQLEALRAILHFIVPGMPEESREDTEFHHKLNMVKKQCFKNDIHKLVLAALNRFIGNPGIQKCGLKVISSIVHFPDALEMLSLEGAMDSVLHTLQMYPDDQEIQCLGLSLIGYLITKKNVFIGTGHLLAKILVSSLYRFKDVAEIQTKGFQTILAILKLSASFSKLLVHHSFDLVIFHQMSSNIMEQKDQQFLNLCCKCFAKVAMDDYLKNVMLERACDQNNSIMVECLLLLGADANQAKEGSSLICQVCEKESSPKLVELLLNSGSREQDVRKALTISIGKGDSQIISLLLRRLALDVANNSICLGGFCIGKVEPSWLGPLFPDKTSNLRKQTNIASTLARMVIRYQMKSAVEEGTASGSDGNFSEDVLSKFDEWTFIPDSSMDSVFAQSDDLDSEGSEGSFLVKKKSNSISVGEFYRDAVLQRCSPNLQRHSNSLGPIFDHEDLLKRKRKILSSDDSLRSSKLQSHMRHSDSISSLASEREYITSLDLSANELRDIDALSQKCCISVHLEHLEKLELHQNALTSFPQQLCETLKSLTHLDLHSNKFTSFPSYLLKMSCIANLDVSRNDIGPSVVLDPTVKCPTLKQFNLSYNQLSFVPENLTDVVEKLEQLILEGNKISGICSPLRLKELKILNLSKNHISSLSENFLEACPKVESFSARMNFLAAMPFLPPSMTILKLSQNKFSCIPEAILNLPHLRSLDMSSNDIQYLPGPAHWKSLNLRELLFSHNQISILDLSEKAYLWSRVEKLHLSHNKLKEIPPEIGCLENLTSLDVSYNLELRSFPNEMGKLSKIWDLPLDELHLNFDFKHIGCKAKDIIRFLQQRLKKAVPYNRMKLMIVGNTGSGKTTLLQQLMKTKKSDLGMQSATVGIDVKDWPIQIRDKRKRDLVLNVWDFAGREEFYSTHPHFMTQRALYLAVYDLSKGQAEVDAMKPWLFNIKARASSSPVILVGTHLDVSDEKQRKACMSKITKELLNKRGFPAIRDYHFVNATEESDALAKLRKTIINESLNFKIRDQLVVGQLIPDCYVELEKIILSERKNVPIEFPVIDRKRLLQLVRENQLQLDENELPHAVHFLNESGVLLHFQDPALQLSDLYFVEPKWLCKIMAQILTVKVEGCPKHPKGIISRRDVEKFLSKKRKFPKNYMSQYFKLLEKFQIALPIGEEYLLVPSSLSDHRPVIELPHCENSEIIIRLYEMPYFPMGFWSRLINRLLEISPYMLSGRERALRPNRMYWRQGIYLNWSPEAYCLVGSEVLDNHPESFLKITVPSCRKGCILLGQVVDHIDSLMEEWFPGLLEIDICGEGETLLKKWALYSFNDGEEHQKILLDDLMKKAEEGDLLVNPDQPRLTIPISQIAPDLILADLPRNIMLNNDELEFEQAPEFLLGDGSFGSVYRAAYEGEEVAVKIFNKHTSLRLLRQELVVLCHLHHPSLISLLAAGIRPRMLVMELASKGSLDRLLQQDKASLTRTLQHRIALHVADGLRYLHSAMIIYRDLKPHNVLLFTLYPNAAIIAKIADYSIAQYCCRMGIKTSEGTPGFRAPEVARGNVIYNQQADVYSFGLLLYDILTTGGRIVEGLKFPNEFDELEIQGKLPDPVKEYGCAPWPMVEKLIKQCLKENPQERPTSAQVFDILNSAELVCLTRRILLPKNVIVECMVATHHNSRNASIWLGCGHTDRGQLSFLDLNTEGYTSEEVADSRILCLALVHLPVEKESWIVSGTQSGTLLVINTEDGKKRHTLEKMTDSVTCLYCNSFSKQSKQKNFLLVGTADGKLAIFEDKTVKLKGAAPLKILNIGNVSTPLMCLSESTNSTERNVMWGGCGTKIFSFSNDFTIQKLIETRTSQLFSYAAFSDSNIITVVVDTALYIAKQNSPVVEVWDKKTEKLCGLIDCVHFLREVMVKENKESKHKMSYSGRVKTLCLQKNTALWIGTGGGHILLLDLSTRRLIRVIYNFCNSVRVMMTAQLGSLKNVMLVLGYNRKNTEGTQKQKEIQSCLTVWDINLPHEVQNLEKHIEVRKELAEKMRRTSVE

| Compound | IC50 (Table D-4) | IC50 (Table A-2) |
| --- | --- | --- |
| CNc1nc(Nc2cnn(C3CCC(n4ccnn4)C3)c2C)ncc1C(F)(F)F [Compound D-112] | < 30 nM |  |
| CCNc1nc(Nc2cn([C@H]3C[C@@H](c4cocn4)C3)nc2C)ncc1C(F)(F)F [Compound D-113] | < 30 nM |  |
| CNc1nc(Nc2cnn(C3CCC(n4nccn4)C3)c2C)ncc1C(F)(F)F [Compound D-114] | < 30 nM |  |
| CNc1nc(Nc2cn(C3(c4ncn(C)n4)CC3)nc2C)ncc1C(F)(F)F [Compound D-115] | > 60 nM |  |
| CCNc1nc(Nc2cnn([C@H]3C[C@H](OC(F)F)C3)c2C)ncc1C(F)(F)F [Compound D-116] | < 30 nM |  |
| CCNc1nc(Nc2cnn([C@H]3C[C@H](n4cncn4)C3)c2C)ncc1C(F)(F)F [Compound D-117] | < 30 nM |  |
| CCNc1nc(Nc2cnn([C@H]3C[C@@H](n4ncnc4C(F)(F)F)C3)c2C)ncc1C(F)(F)F [Compound D-118] | < 30 nM |  |
| Cc1c(Nc2ncc(C(F)(F)F)c(NC3CC3)n2)cnn1[C@H]1C[C@H](n2nccn2)C1 [Compound D-119] | < 30 nM |  |
| CCOc1nc(Nc2cn(C(F)(F)C(N)=O)nc2C)ncc1C(F)(F)F [Compound D-120] | < 30 nM |  |
| CCNc1nc(Nc2cnn([C@H]3C[C@@H](n4ccnn4)C3)c2C)ncc1C(F)(F)F [Compound D-123] | < 30 nM |  |
| CNc1nc(Nc2cnn(C3CCC(n4ccnn4)C3)c2C)ncc1C(F)(F)F [Compound D-124] | < 30 nM |  |
| CNc1nc(Nc2cn(C3CCC(n4ccnn4)C3)nc2C)ncc1C(F)(F)F [Compound D-125] | 30 to 60 nM |  |
| CCNc1nc(Nc2cnn(C3CCc4cn[nH]c43)c2C)ncc1C(F)(F)F [Compound D-126] | > 60 nM |  |
| COc1nc(Nc2cn(C3CCn4ccnc43)nc2C)ncc1C(F)(F)F [Compound D-127] | < 30 nM |  |
| CNc1nc(Nc2cnn([C@H]3C[C@H](n4nccn4)C3)c2C)ncc1Br [Compound D-128] | < 30 nM |  |
| COc1nc(Nc2cnn([C@H]3C[C@H](n4nccn4)C3)c2C)ncc1Br [Compound D-129] | < 30 nM |  |
| CCNc1nc(Nc2cn(C3CCc4nc[nH]c43)nc2C)ncc1C(F)(F)F [Compound D-131] | < 30 nM |  |
| CCNc1nc(Nc2cnn([C@H]3C[C@H](n4cnc(C(F)(F)F)n4)C3)c2C)ncc1C(F)(F)F [Compound D-135] | < 30 nM |  |
| CNc1nc(Nc2cn(C3(c4ncn(C)n4)CCC3)nc2C)ncc1C(F)(F)F [Compound D-136] | < 30 nM |  |
| CNc1nc(Nc2cn(C3CCn4ccnc43)nc2C)ncc1C(F)(F)F [Compound D-137] | < 30 nM |  |
| CCNc1nc(Nc2cn([C@H]3C[C@H](OC(F)F)C3)nc2C)ncc1C(F)(F)F [Compound D-138] | < 30 nM |  |
| CCNc1nc(Nc2cnn([C@H]3C[C@@H](N4CCCC4=O)C3)c2C)ncc1C(F)(F)F [Compound D-139] | < 30 nM |  |
| CCNc1nc(Nc2cn(C(F)(F)C(=O)NC3CC3)nc2C)ncc1C(F)(F)F [Compound D-140] | < 30 nM |  |
| CNc1nc(Nc2cnn(C3(CC#N)CC3)c2C)ncc1C(F)(F)F [Compound D-144] | < 30 nM |  |
| CCNc1nc(Nc2cnn(C3CCn4nccc43)c2C)ncc1C(F)(F)F [Compound D-145] | < 30 nM |  |
| CCNc1nc(Nc2cn(C3CCn4nccc43)nc2C)ncc1C(F)(F)F [Compound D-146] | < 30 nM |  |

| Compound | IC50 (Table D-4) | IC50 (Table A-2) |
| --- | --- | --- |
| CCNc1nc(Nc2cnn([C@H]3C[C@@H](S(C)(=O)=O)C3)c2C)ncc1C(F)(F)F [Compound D-147] | < 30 nM |  |
| CCNc1nc(Nc2cnn([C@H]3C[C@@H](n4nccn4)C3)c2C)ncc1C(F)(F)F [Compound D-148] | < 30 nM |  |
| CNc1nc(Nc2cnn(C3CCn4cncc43)c2C)ncc1C(F)(F)F [Compound D-150] | < 30 nM |  |
| CCNc1nc(Nc2cnn([C@H]3C[C@H](N4CCOCC4)C3)c2C)ncc1C(F)(F)F [Compound D-153] | < 30 nM |  |
| CCNc1nc(Nc2cnn([C@H]3C[C@H](n4nccn4)C3)c2C)ncc1Cl [Compound D-154] | < 30 nM |  |
| CCNc1nc(Nc2cnn(C3(CC#N)CC3)c2C)ncc1C(F)(F)F [Compound D-155] | < 30 nM |  |
| CNc1nc(Nc2cnn(C3(COC(F)F)CC3)c2C)ncc1C(F)(F)F [Compound D-157] | < 30 nM |  |
| CNc1nc(Nc2cnn(CC3(CC#N)CC3)c2C)ncc1C(F)(F)F [Compound D-157a] | < 30 nM |  |
| CCNc1nc(Nc2cnn(CC3(CC#N)CC3)c2C)ncc1C(F)(F)F [Compound D-158] | < 30 nM |  |
| CNC(=O)C(F)(F)n1cc(Nc2ncc(C(F)(F)F)c(NC)n2)c(C)n1 [Compound D-159] | < 30 nM |  |
| CCNC(=O)C(F)(F)n1cc(Nc2ncc(C(F)(F)F)c(NC)n2)c(C)n1 [Compound D-160] | < 30 nM |  |
| CCNc1nc(Nc2cn(C(F)(F)C(=O)O)nc2C)ncc1C(F)(F)F [Compound D-161] | < 30 nM |  |
| CNc1nc(Nc2cnn([C@H]3C[C@H](n4nccn4)C3)c2C)ncc1C(F)(F)F [Compound D-162] | < 30 nM |  |
| CCNc1nc(Nc2cn(C(F)(F)C(N)=O)nc2Cl)ncc1C(F)(F)F [Compound D-164] | < 30 nM |  |
| CNc1nc(Nc2cnn([C@H]3C[C@@H](n4cc(F)cn4)C3)c2C)ncc1C(F)(F)F [Compound D-165] | < 30 nM |  |
| CNc1nc(Nc2cn([C@H]3C[C@H](c4nncs4)C3)nc2C)ncc1C(F)(F)F [Compound D-167] | < 30 nM |  |
| CNc1nc(Nc2cnn([C@H]3C[C@H](c4nncs4)C3)c2C)ncc1C(F)(F)F [Compound D-168] | < 30 nM |  |
| CNc1nc(Nc2cnn(C3CCCn4ccnc43)c2C)ncc1C(F)(F)F [Compound D-169] | > 60 nM |  |
| COc1nc(Nc2cn(C3(C)CCn4ccnc43)nc2C)ncc1Br [Compound D-178] | < 30 nM |  |
| COc1nc(Nc2cn(C(F)(F)C(N)=O)nc2C)ncc1Br [Compound D-183] | < 30 nM |  |
| COc1nc(Nc2cnn([C@H]3C[C@@H](n4nccn4)C3)c2C)ncc1Br [Compound D-184] | < 30 nM |  |
| CNc1nc(Nc2cnn([C@H]3C[C@@H](n4nccn4)C3)c2C)ncc1Br [Compound D-185] | < 30 nM |  |
| COc1nc(Nc2cnn([C@H]3C[C@H](n4nccn4)C3)c2C)ncc1Cl [Compound D-186] | < 30 nM |  |
| CCNc1nc(Nc2cnn([C@H]3C[C@H](N4CCN(C)CC4)C3)c2C)ncc1C(F)(F)F [Compound D-187] | < 30 nM |  |
| CNc1nc(Nc2cnn([C@H]3C[C@@H](n4cc(F)cn4)C3)c2C)ncc1Br [Compound D-192] | < 30 nM |  |
| CNc1nc(Nc2cnn([C@H]3C[C@H](n4cc(F)cn4)C3)c2C)ncc1Br [Compound D-193] | < 30 nM |  |

| Compound | IC50 (Table D-4) | IC50 (Table A-2) |
| --- | --- | --- |
| CCNc1nc(Nc2cnn([C@H]3C[C@@H](N4CCN(C)CC4)C3)c2C)ncc1C(F)(F)F [Compound D-194] | < 30 nM |  |
| CCNc1nc(Nc2cnn([C@H]3C[C@H](N4CC[C@H](F)C4)C3)c2C)ncc1C(F)(F)F [Compound D-195] | < 30 nM |  |
| CCNc1nc(Nc2cnn([C@H]3C[C@@H](N4CC[C@H](F)C4)C3)c2C)ncc1C(F)(F)F [Compound D-196] | < 30 nM |  |
| CCNc1nc(Nc2cnn([C@H]3C[C@H](N4CC[C@@H](F)C4)C3)c2C)ncc1C(F)(F)F [Compound D-197] | < 30 nM |  |
| CCNc1nc(Nc2cnn([C@H]3C[C@@H](N4CC[C@@H](F)C4)C3)c2C)ncc1C(F)(F)F [Compound D-198] | < 30 nM |  |
| CCNc1nc(Nc2cn(C(C)(C#N)CF)nc2C)ncc1C(F)(F)F [Compound D-203] | < 30 nM |  |
| CCNc1nc(Nc2cn(C(C#N)(CF)CF)nc2C)ncc1C(F)(F)F [Compound D-204] | < 30 nM |  |
| Cc1c(Nc2ncc(C(F)(F)F)c(C3CC3)n2)cnn1[C@@H]1CCc2cn[nH]c21 [Compounds A-84] |  | < 30 nM |
| Cc1nn([C@@H]2CCNC2=O)cc1Nc1ncc(C(F)(F)F)c(C2CC2)n1 [Compounds A-85] |  | < 30 nM |
| Cc1nn([C@H]2CCNC2=O)cc1Nc1ncc(C(F)(F)F)c(C2CC2)n1 [Compounds A-86] |  | < 30 nM |
| Cc1nn([C@@H]2CCc3cn[nH]c32)cc1Nc1ncc(C(F)(F)F)c(C2CC2)n1 [Compounds A-89] |  | < 30 nM |
| Cc1nn([C@H]2CCc3cn[nH]c32)cc1Nc1ncc(C(F)(F)F)c(C2CC2)n1 [Compounds A-90] |  | < 30 nM |
| Cc1c(Nc2ncc(C(F)(F)F)c(C3CC3)n2)cnn1[C@H]1CCNC1=O [Compounds A-91] |  | 30 to 60 nM |
| Cc1c(Nc2ncc(C(F)(F)F)c(C3CC3)n2)cnn1[C@H]1CCc2cn[nH]c21 [Compounds A-92] |  | < 30 nM |
| Cc1nn([C@@]2(C)CCNC2=O)cc1Nc1ncc(C(F)(F)F)c(C2CC2)n1 [Compounds A-94] |  | < 30 nM |
| Cc1nn([C@]2(C)CCNC2=O)cc1Nc1ncc(C(F)(F)F)c(C2CC2)n1 [Compounds A-95] |  | < 30 nM |
| Cc1nn([C@@](C)(C(N)=O)C(F)F)cc1Nc1ncc(C(F)(F)F)c(C2CC2)n1 [Compounds A-96] |  | < 30 nM |
| Cc1nn([C@](C)(C(N)=O)C(F)F)cc1Nc1ncc(C(F)(F)F)c(C2CC2)n1 [Compounds A-97] |  | 30 to 60 nM |
| CCNc1nc(Nc2cn([C@H]3CCc4ncsc43)nc2C)ncc1C(F)(F)F [Compounds D-86] | < 30 nM |  |
| CNc1nc(Nc2cn(C(C)COC(F)F)nc2C)ncc1C(F)(F)F [Compounds D-96] | < 30 nM |  |
| CCNc1nc(Nc2cn(C3Cc4nccn4C3)nc2C)ncc1C(F)(F)F [Compounds D-102] | < 30 nM |  |
| CNc1nc(Nc2cnn(C3CCC(n4nccn4)C3)c2C)ncc1C(F)(F)F [Compounds D-107] | < 30 nM |  |
| CNc1nc(Nc2cnn([C@@H]3CCn4cncc43)c2C)ncc1C(F)(F)F [Compounds D-121] | < 30 nM |  |
| CCNc1nc(Nc2cn([C@H]3CCn4nccc43)nc2C)ncc1C(F)(F)F [Compounds D-122] | < 30 nM |  |
| CNc1nc(Nc2cnn([C@@H]3CCC(n4nccn4)C3)c2C)ncc1C(F)(F)F (stereo partly drawn) [Compounds D-133] | < 30 nM |  |
| CNc1nc(Nc2cnn([C@H]3CCC(n4nccn4)C3)c2C)ncc1C(F)(F)F (stereo partly drawn) [Compounds D-134] | < 30 nM |  |
